Data set [1] deals with T1, human EAAT3 (Homo sapiens, UniProt P43005).
T1 construct: expressed in transfected cells
T1 sequence (P43005 1-524): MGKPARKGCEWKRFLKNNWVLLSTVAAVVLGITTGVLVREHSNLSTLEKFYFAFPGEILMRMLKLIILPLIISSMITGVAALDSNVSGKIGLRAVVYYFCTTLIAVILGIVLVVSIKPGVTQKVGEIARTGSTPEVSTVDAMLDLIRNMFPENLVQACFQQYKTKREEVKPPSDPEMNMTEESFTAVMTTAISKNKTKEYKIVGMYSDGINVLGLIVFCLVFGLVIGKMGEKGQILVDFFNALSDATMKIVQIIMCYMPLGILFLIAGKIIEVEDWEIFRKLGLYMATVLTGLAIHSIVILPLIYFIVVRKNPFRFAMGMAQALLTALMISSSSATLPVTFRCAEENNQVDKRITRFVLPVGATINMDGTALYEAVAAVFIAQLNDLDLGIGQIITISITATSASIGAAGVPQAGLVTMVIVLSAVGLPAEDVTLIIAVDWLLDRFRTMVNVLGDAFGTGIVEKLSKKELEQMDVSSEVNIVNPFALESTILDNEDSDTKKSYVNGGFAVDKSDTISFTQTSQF
The experiment in a line: FLIPR Membrane Potential (FMP) assay, antagonist potency at human EAAT3. The format is cell-based. The following applies: HEK-293 cells stably expressing human EAAT3; L-glutamate as agonist at EC80; antagonist applied 15 min before; Kb by Cheng-Prusoff from IC50. On the procedure: The FLIPR Membrane Potential (FMP) Assay
HEK-293 cells stably expressing human EAAT3 were seeded at 55 000 cells/well in growth medium (DMEM glutamate free (Invitrogen 11960-044), 1% Pen Strep (10 ml/l GIBCO BRL No 15140-023), 10% FCS non dialysed heat inactivated, 5 mg/l puromycin) in poly-D-lysine treated 96-well black microtiter plates with clear-bottom. After 24 h, the growth medium was removed and 100 μl/well of Krebs buffer (140 mM NaCl, 4.7 mM KCl, 2.5 mM CaCl2, 1.2 mM MgCl2, 11 mM HEPES, 10 mM D-glucose, pH=7.4) added. The cells were then loaded by adding 100 μl/well FMP assay dye (FLIPR Membrane Potential assay reagent, Molecular Devices). The 96-well plates were then incubated at 37° C. for 1 h. The depolarization of the cells will cause more dye to enter in the cells, where it will bind to intracellular proteins and lipids and cause an increase in the fluorescence signal. Antagonist potency at human EAAT3 was determined by using L-glutamate as agonist at a concentration which gives 80% of the maximum response. The antagonists were applied 15 min before the application of the agonist L-glutamate. The assays were performed at room temperature and measurements done by using a Fluorometric Imaging Plate Reader (FLIPR, Molecular Devices) and filter #2. Responses were measured as peak increase in fluorescence minus basal (i.e. fluorescence without addition of L-glutamate). Kb was determined using the Cheng-Prusoff equation Kb=IC50/[1+(A/EC50)], where IC50 is the concentration of the antagonist producing 50% inhibition, A is the concentration of the agonist against which the IC50 is being determined (at EC80) and EC50 is the concentration of the agonist producing 50% […].

Structures are written as SMILES.

This passage reports Kb and melting point results from patent US10092546B2, “Imidazole derivatives” (Hoffman-La Roche Inc., priority 2015, dated 2018).

Consider `CC(C)(C)NC(=O)c1cc(-c2ccc(C3CC3)cc2)nc(-n2ccnc2C(C)(C)C)c1` [Example 28, N-tert-Butyl-2-(2-tert-butyl-imidazol-1-yl)-6-(4-cyclopropyl-phenyl)-pyridine-4-carboxamide], for which the melting point (commonly the temperature of the solid-liquid transition) was 226 °C. In addition, the Kb (commonly the affinity of an antagonist, worked out from how it opposes an agonist) in data set [1] came to 670 nM. The like results for `CC(C)(C)NC(=O)c1cc(-c2ccc(C#N)cc2)nc(-n2ccnc2C(C)(C)C)c1` [Example 32, N-tert-Butyl-2-(2-tert-butyl-imidazol-1-yl)-6-(4-cyano-phenyl)-pyridine-4-carboxamide] were, in that order, 245 °C and 290 nM. The like results for `CC(C)c1nccn1-c1cc(C(=O)NC(C)(C)C)cc(-c2ccc(F)cc2)n1` [Example 2, N-tert-Butyl-2-(4-fluorophenyl)-6-(2-propan-2-yl-imidazol-1-yl)-pyridine-4-carboxamide] were, in that order, 199 °C and 110 nM.

Consider `COc1ccc(-c2cc(C(=O)NC(C)(C)C)cc(-n3ccnc3C(C)(C)C)n2)cc1` [Example 31, N-tert-Butyl-2-(2-tert-butyl-imidazol-1-yl)-6-(4-methoxy-phenyl)-pyridine-4-carboxamide], for which the melting point came out at 235 °C. In data set [1], the Kb came to 240 nM. The like results for `CC(C)(C)c1nccn1-c1cc(C(=O)NC(C)(C)C(F)(F)F)cc(-c2ccc(Cl)cc2)n1` [Example 25, 2-(2-tert-Butylimidazol-1-yl)-6-(4-chlorophenyl)-N-(1,1,1-trifluoro-2-methylpropan-2-yl)-pyridine-4-carboxamide] were, in that order, 225 °C and 260 nM. `Cc1ccc(-c2cc(C(=O)NC(C)(C)C)cc(-n3ccnc3C(C)(C)C)n2)cc1` [Example 27, N-tert-Butyl-2-(2-tert-butyl-imidazol-1-yl)-6-(4-methylphenyl)-pyridine-4-carboxamide] had a melting point of 232 °C. Moreover, the Kb in data set [1] came to 110 nM. `CC(C)c1nccn1-c1cc(C(=O)NC(C)(C)C2CC2)cc(-c2ccc(Cl)cc2)n1` [Example 15, 2-(4-Chlorophenyl)-N-(2-cyclopropylpropan-2-yl)-6-(2-propan-2-yl-imidazol-1-yl)-pyridine-4-carboxamide] came in with a Kb in data set [1] of 150 nM. The same measure, in the same setting: with `Cc1cc(-c2cc(C(=O)NC(C)(C)C)cc(-n3ccnc3C(C)(C)C)n2)ccc1F` [Example 29, N-tert-Butyl-2-(2-tert-butyl-imidazol-1-yl)-6-(4-fluoro-3-methyl-phenyl)-pyridine-4-carboxamide] the figure was 150 nM.

Consider `CC(C)(C)NC(=O)c1cc(-c2ccc(F)c(F)c2)nc(-n2ccnc2C(C)(C)C)c1` [Example 26, N-tert-Butyl-2-(2-tert-butyl-imidazol-1-yl)-6-(3,4-difluorophenyl)-pyridine-4-carboxamide], for which the melting point worked out at 244 °C. In addition, in data set [1], the Kb was found to be 370 nM. `CC(C)(C)NC(=O)c1cc(-c2ccc(C(F)(F)F)cc2)nc(-n2ccnc2C2CC2)c1` [Example 20, N-tert-Butyl-2-(2-cyclopropyl-imidazol-1-yl)-6-[4-(trifluoromethyl)-phenyl]-pyridine-4-carboxamide] came in with a Kb in data set [1] of 290 nM. `CC(C)(C)NC(=O)c1cc(-c2ccc(F)cc2)nc(-n2ccnc2CO)c1` [Example 14, N-tert-Butyl-2-(4-fluorophenyl)-6-[2-(hydroxymethyl)-imidazol-1-yl]-pyridine-4-carboxamide] yielded a melting point of 212 °C. In addition, the Kb in data set [1] stood at 370 nM. As for `CC(C)(C)NC(=O)c1cc(-c2ccc(F)cc2)nc(-n2ccnc2C(C)(C)C)c1` [Example 13, N-tert-Butyl-2-(2-tert-butyl-imidazol-1-yl)-6-(4-fluorophenyl)-pyridine-4-carboxamide], in data set [1], the Kb came to 58 nM.
